The results in this text go back to US20100261753A1, “METHODS FOR PREVENTING AND/OR TREATING DEGENERATIVE DISORDERS OF THE CENTRAL NERVOUS SYSTEM” (AMICUS THERAPEUTICS, INC., priority 2009, published 2010).

Series [1] is described as follows: Compound concentration in brain, spleen and plasma samples of the GCase enhancement study. It counts as in vivo, mice (C57BL/6). Particulars: male, C57BL/6, mouse, po, nine doses, 24-hour washout. The procedure:
The ability of orally administered test compounds (the hydrochloride salt form of Compound A and Compound B) to elevate GCase levels as compared to reference compound, IFG-tartrate, was assessed in mice. […] Seven animals were used per dose. The dosing solutions were prepared in water. Compounds were administered over 2 weeks as follows: week 1, Mon-Fri (On), Sat-Sun (Off); week 2, Mon-Thu (On); necropsy on Friday. Thus, a total of 9 doses (dosing solutions prepared fresh every day) were given to each mouse, with a 24-hour washout between the last dose and necropsy.
Plasma was collected by spinning blood at 2700 g for 10 minutes at 4° C. Liver, spleen, lung, and brain tissues were removed, washed in cold PBS, blotted dry, flash frozen on dry ice, and stored at −80° C. until analysis. GCase levels were measured by homogenizing approximately 50 mg tissue in 500 μl McIlvane (MI) buffer (100 mM sodium citrate, 200 mM sodium phosphate dibasic, 0.25% sodium taurocholate, and 0.1% Triton X-100, pH 5.2) at pH 5.2 for 3-5 seconds on ice with a micro homogenizer. Homogenates were then incubated at room temperature without and with 2.5 mM conduritol-B-epoxide (CBE) for 30 min. Finally, 3.7 mM 4-methylumbeliferryl-β-glucoside (4-MUG) substrate was added and incubated at 37° C. for 60 min. Reactions were stopped by addition of 0.4 M glycine, pH 10.6. Fluorescence was measured on a plate reader for 1 sec/well using 355 nm excitation and 460 nm emission. Total protein was determined in lysates using the MicroBCA kit according to the manufacturer's instructions. A 4-methylumbelliferone (4-MU) standard curve ranging from 1.0 nM to 50 μM was run in parallel for conversion of raw fluorescence data to absolute GCase activity (in the presence and absence of CBE) and expressed as nanomoles of 4-MU released per milligram of protein per hour (nmol/mg protein/hr). GCase levels and protein levels were calculated using Microsoft Excel (Redmond, Wash.) and GraphPad Prism version 4.02.

A further series addresses T1, GCase (Homo sapiens, UniProt P04062).
T1 sequence (P04062 40-536): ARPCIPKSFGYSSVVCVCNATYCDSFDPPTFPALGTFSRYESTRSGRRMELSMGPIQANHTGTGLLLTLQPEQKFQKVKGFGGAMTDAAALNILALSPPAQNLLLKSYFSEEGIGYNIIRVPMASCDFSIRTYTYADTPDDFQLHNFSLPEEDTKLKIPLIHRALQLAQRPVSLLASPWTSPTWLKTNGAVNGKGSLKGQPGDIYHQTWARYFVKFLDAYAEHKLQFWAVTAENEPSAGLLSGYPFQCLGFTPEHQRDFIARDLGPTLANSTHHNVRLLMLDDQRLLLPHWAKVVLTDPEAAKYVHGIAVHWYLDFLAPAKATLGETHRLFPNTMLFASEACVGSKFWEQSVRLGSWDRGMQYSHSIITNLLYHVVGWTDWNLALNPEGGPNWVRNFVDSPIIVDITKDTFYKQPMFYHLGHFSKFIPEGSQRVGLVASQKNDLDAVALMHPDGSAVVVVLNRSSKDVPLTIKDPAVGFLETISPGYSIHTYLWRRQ
Put plainly: GCase activity enhancement (EC50, Emax; Table 2B). It counts as cell-based.

Counter-ions that a name gives are not always drawn.

For the molecule `Cl.O[C@@H]1[C@@H](CF)CNC[C@H]1O` [Compound A-HCl, (3R,4R,5R)-5-(fluoromethyl)piperidine-3,4-diol hydrochloride], the melting point fell in the range of 200 to 202 °C.
With `OC[C@H]1CNC[C@@H](O)[C@@H]1O` [IFG, (3R,4R,5R)-5-(hydroxymethyl)-3,4-piperidinediol, reference compound], the concentration at 24 h in series [1] (brain, 10 mg/kg, 10 mg/kg p.o., Table 4A) was determined as 49 ± 2.4 nM; in series [1] (brain, 100 mg/kg, 100 mg/kg p.o., Table 3A), 182 ± 13 nM; in series [1] (brain, 100 mg/kg, 100 mg/kg p.o., Table 4A), 287 ± 74 nM; in series [1] (plasma, 10 mg/kg, 10 mg/kg p.o., Table 4C), 67 ± 10 nM; in series [1] (plasma, 100 mg/kg, 100 mg/kg p.o., Table 3C), 330 ± 36 nM; in series [1] (plasma, 100 mg/kg, 100 mg/kg p.o., Table 4C) it was 852 ± 134 nM. Besides, the concentration at 24 h was determined as 150 ± 12 nM in series [1] (spleen, 10 mg/kg, 10 mg/kg p.o., Table 4B); 711 ± 100 nM in series [1] (spleen, 100 mg/kg, 100 mg/kg p.o., Table 3B); 1140 ± 220 nM in series [1] (spleen, 100 mg/kg, 100 mg/kg p.o., Table 4B).
As to `OC[C@H]1CNC[C@@H](O)[C@@H]1O` [IFG-Tartrate, Isofagomine tartrate, reference compound], the maximum response (Emax) on GCase is 93.6 ± 2.5%.

Broadly, the melting point is the temperature, or range, at which the solid turns liquid. Usually Emax stands for the greatest response seen or fitted, relative to the assay's reference.
